Laboratory results from patent publication US8946197B2, “Transglutaminase TG2 inhibitors, pharmaceutical compositions, and methods of use thereof” (CHDI Foundation, Inc., priority 2009, dated 2015).
Where “and” joins values, the source holds several entries; their conditions need not be identical. Equal values may be shown once.

Molecular target: T1, human TG2 (Homo sapiens, UniProt P21980)
T1 sequence (P21980 1-687): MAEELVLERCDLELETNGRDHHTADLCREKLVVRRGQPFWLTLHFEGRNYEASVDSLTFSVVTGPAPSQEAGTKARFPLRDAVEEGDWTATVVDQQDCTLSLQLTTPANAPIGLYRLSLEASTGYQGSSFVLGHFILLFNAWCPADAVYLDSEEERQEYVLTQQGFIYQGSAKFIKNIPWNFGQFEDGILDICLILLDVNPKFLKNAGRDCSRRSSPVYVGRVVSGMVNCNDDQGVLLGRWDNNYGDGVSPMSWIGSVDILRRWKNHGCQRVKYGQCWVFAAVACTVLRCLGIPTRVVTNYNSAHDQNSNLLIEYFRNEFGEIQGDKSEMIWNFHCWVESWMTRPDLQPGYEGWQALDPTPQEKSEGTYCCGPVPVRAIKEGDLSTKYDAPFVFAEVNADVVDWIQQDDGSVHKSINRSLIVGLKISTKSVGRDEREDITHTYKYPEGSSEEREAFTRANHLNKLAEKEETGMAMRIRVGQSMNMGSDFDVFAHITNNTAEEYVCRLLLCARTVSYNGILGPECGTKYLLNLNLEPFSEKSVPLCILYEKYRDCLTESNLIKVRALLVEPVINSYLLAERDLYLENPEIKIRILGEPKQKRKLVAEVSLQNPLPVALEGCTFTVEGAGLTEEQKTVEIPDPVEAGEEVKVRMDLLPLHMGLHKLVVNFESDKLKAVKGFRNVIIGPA
Test: fluorescent screening assay for human TG2
Assay type: biochemical
Settings: 20 nM TG2, 8 μM N,N-dimethylated Casein, 16 μM KxD, pH 7.4, 37° C
Method in brief: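 20 nM TG2 with 8 μM N,N-dimethylated casein and 16 μM K×D in 25 mM Hepes pH 7.4, 250 mM NaCl, 2 mM MgCl2, 0.5 mM CaCl2, 0.2 mM DTT, 0.05% Pluronic F-127 at 37° C. Fluorescence (ex 350, em 535 nm) was read every 3 min for up to 2 h. Initial linear velocity served as activity.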

Row | Compound | IC50
1 | C=CC(=O)Nc1ccc(S(=O)(=O)N2CCN(C(=O)C34CC5CC(CC(C5)C3)C4)CC2)c(F)c1 [N-{4-[4-(Adamantane-1-carbonyl)-piperazine-1-sulfonyl]-3-fluoro-phenyl}-acrylamide] | 100 to 1000 nM and < 100 nM
2 | C=CC(=O)Nc1ccc(S(=O)(=O)N2CCN(C(=O)C34CC5CC(CC(C5)C3)C4)CC2)cc1 [N-{4-[4-(Adamantane-1-carbonyl)-piperazine-1-sulfonyl]-phenyl}-acrylamide] | 100 to 1000 nM and < 100 nM
3 | C=CC(=O)Nc1ccc(S(=O)(=O)N2CCN(C(=O)N3CCC4CCCCC4C3)CC2)cc1 (centres unmarked) [N-{4-[4-(Octahydro-isoquinoline-2-carbonyl)-piperazine-1-sulfonyl]-phenyl}-acrylamide] | 100 to 1000 nM and < 100 nM
4 | C=CC(=O)Nc1ccc(S(=O)(=O)N2CCN(C(=O)N3CCCC4CCCCC43)CC2)cc1 (centres unmarked) [N-{4-[4-(Octahydro-quinoline-1-carbonyl)-piperazine-1-sulfonyl]-phenyl}-acrylamide] | 100 to 1000 nM and < 100 nM
5 | C=CC(=O)Nc1ccc(S(=O)(=O)N2CCN(C(=O)N3CCCCC3)CC2)cc1 [N-{4-[4-(Piperidine-1-carbonyl)-piperazine-1-sulfonyl]-phenyl}-acrylamide] | 100 to 1000 nM and < 100 nM
6 | C=CC(=O)Nc1ccc(S(=O)(=O)N2CCC(C(=O)N3CCCCC3)CC2)cc1 [N-{4-[4-(Piperidine-1-carbonyl)-piperidine-1-sulfonyl]-phenyl}-acrylamide] | 100 to 1000 nM and < 100 nM
7 | C=CC(=O)Nc1ccc(S(=O)(=O)N2CCN(C(=O)N3CCCC3)CC2)cc1 [N-{4-[4-(Pyrrolidine-1-carbonyl)-piperazine-1-sulfonyl]-phenyl}-acrylamide] | 100 to 1000 nM and < 100 nM
8 | C=CC(=O)Nc1ccc(S(=O)(=O)N2CCN(C(=O)C3CCOCC3)CC2)cc1 [N-{4-[4-(Tetrahydro-pyran-4-carbonyl)-piperazine-1-sulfonyl]-phenyl}-acrylamide] | 100 to 1000 nM and < 100 nM
9 | C=CC(=O)Nc1ccc(S(=O)(=O)NCc2ccc(-c3ccccc3)nc2)cc1 [N-{4-[(6-Phenyl-pyridin-3-ylmethyl)-sulfamoyl]-phenyl}-acrylamide] | 1000 to 25000 nM
10 | C=CC(=O)Nc1ccc(S(=O)(=O)N(Cc2ccccc2)Cc2ccc(Cl)cc2)cc1 [N-{4-[Benzyl-(4-chloro-benzyl)-sulfamoyl]-phenyl}-acrylamide] | 1000 to 25000 nM
11 | C=CC(=O)Nc1ccc(S(=O)(=O)N(C)Cc2csc(N3CCOCC3)n2)cc1 [N-{4-[Methyl-(2-morpholin-4-yl-thiazol-4-ylmethyl)-sulfamoyl]-phenyl}-acrylamide] | 1000 to 25000 nM
12 | C=CC(=O)Nc1ccc(S(=O)(=O)N(C)Cc2cccc(CN3CCCC3)c2)cc1 [N-{4-[Methyl-(3-pyrrolidin-1-ylmethyl-benzyl)-sulfamoyl]-phenyl}-acrylamide] | 1000 to 25000 nM
13 | C=CC(=O)Nc1ccc(S(=O)(=O)N2CCC(N(C)C(=O)OC(C)(C)C)CC2)cc1 [[1-(4-Acryloylamino-benzenesulfonyl)-piperidin-4-yl]-methyl-carbamic acid tert-butyl ester] | 100 to 1000 nM and < 100 nM
14 | C=CC(=O)Nc1ccc(S(=O)(=O)N(C)CCN(C)C(=O)OCc2ccccc2)cc1 [{2-[(4-Acryloylamino-benzenesulfonyl)-methyl-amino]-ethyl}-methyk-carbamic acid benzyl ester] | 1000 to 25000 nM

Next, values leading:

Row | IC50 | Compound
15 | < 100 nM and 100 to 1000 nM | C=CC(=O)Nc1ccc(S(=O)(=O)N2CCN(c3nccc(OC)n3)CC2)cc1 [N-{4-[4-(4-Methoxy-pyrimidin-2-yl)-piperazine-1-sulfonyl]-phenyl}-acrylamide]
16 | < 100 nM and 100 to 1000 nM | C=CC(=O)Nc1ccc(S(=O)(=O)N2CCN(c3cc(C)ccn3)CC2)cc1 [N-{4-[4-(4-Methyl-pyridin-2-yl)-piperazine-1-sulfonyl]-phenyl}-acrylamide]
17 | < 100 nM and 100 to 1000 nM | C=CC(=O)Nc1ccc(S(=O)(=O)N2CCN(c3nccc(C(F)(F)F)n3)CC2)cc1 [N-{4-[4-(4-Trifluoromethyl-pyrimidin-2-yl)-piperazine-1-sulfonyl]-phenyl}-acrylamide]
18 | < 100 nM and 100 to 1000 nM | C=CC(=O)Nc1ccc(S(=O)(=O)N2CCN(c3ccc(Cl)cn3)CC2)cc1 [N-{4-[4-(5-Chloro-pyridin-2-yl)-piperazine-1-sulfonyl]-phenyl}-acrylamide]
19 | < 100 nM and 100 to 1000 nM | C=CC(=O)Nc1ccc(S(=O)(=O)N2CCN(c3ccc(C)cn3)CC2)cc1 [N-{4-[4-(5-Methyl-pyridin-2-yl)-piperazine-1-sulfonyl]-phenyl}-acrylamide]
20 | 100 to 1000 nM and < 100 nM | C=CC(=O)Nc1ccc(S(=O)(=O)N2CCN(c3cccc(C)n3)CC2)cc1 [N-{4-[4-(6-Methyl-pyridin-2-yl)-piperazine-1-sulfonyl]-phenyl}-acrylamide]
